Assay [1] concerns xpt/pbuE*6U guanine riboswitch (RNA, riboswitch) AAAUUAAAUAGCUAUUAUCACGAUUUUUAUAAUCGCGUGGAUAUGGCACGCAAGUUUCUACCGGGCACCGUAAAUGUCCGACUAAAAAUCCUGAUUACAAAAUUUGUUUAUGACAUUUUUUGUAAUCAGGAUUUUUUAUUUAUCAAAACAUUUAAGUAAAGGAGUUUGUUAUGUUUUUUUUGGCCAGUGAAUUCGAGCUCGGUACCCGGGGAUCCUCUAGAAAUAUGGAUUACUUGGUAGAACAGCAAUCUACUCGACCUGCAGGCAUGCAAGCUUGGCGUAAUCAUGGUCAUAGCUGUUUCCUGUGUUUAUCCGCUCACAAUUCCACACAACAUACGAGCCGGAAGCAUAAAG
The assay is described as follows: SPRINT: multiple-turnover transcription read-through, Cas13a fluorescence. Particulars: 70 mM Na+ (NaCl), 2.5 mM Mg2+.

The subject of assay [2] is ribD/pbuE*7U FMN riboswitch (RNA, riboswitch) AAAUUAAAUAGCUAUUAUCACGAUUUUUCGGGGCAGGGUGGAAAUCCCGACCGGCGGUAGUAAAGCACAUUUGCUUUAGAGCCCGUGACCCGUGUGCAUAAGCACGCGGUGGAUUCAGUUUAAGCUGAAGCCGACAGUGAAAGUCUGGAUGGGAGAAAAAUCCUGAUUACAAAAUUUGUUUAUGACAUUUUUUGUAAUCAGGAUUUUUUUAUUUAUCAAAACAUUUAAGUAAAGGAGUUUGUUAUGUUUUUUUUGGCCAGUGAAUUCGAGCUCGGUACCCGGGGAUCCUCUAGAAAUAUGGAUUACUUGGUAGAACAGCAAUCUACUCGACCUGCAGGCAUGCAAGCUUGGCGUAAUCAUGGUCAUAGCUGUUUCCUGUGUUUAUCCGCUCACAAUUCCACACAACAUACGAGCCGGAAGCAUAAAG
The description is as above. Particulars: 70 mM Na+ (NaCl), 10 mM Mg2+; SPRINT buffer, 37 °C; low-affinity response.

Among the data in publication PMC7515716 (2020) are binding values, retold here.

Structures are written as SMILES.

`CNc1nc2[nH]cnc2c(=O)[nH]1`: in assay [1], the binding result is listed as “weak”.

Take `Cc1cc2nc3c(=O)[nH]c(=O)nc-3n(C[C@H](O)[C@H](O)[C@H](O)COP(=O)(O)OP(=O)(O)OC[C@H]3O[C@@H](n4cnc5c(N)ncnc54)[C@H](O)[C@@H]3O)c2cc1C`: the binding entry in assay [2] is recorded as “weak”.
